Source: patent US20100160454A1, “ANTIMICROBIAL AGENTS, COMPOSITIONS AND PRODUCTS CONTAINING THE SAME, AND METHODS OF USING THE COMPOSITIONS AND PRODUCTS” (Eastman Chemical Company, priority 2008, published 2010)

Columns and labels:
Assay in all cases: Microbiological challenge testing in BPW broth, graded subculture counts
Format in all cases: cell-based
[1] = system: Escherichia coli ATCC 25922; settings: E. Coli
How it was run: (§1)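 Challenge substrates of BPW plus 1% dextrose containing the test material (w/v) or broth alone were inoculated to 10^5–10^6 CFU/mL. Bacteria had been precultured in dextrose TSB at 35 °C for at least 96 h. CFU/mL came from plate count × dilution factor on PCA after ≥48 h at 35 °C.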

[2] = system: Proteus vulgaris Wild type
How it was run: as §1

[3] = system: Pseudomonas aeruginosa Wild type; settings: P. aeruginosa
How it was run: as §1

[4] = system: Staphylococcus aureus ATCC 25923; settings: S. aureus
How it was run: as §1

[5] = system: Bacillus subtilis Wild type
How it was run: as §1

[6] = system: Aeromonas sp. Wild type
How it was run: as §1

OCC1CCCCC1CO (stereo not drawn) [1,2-CHDM, 1,2-cyclohexanedimethanol]
Grade ([1]; 0.5% (wt/vol), 3 day): 5 (More than 10,000 colonies estimated (thus more than 100,000 CFU/mL)) | Grade ([1]; 0.5% (wt/vol), 14 day): 4 (1000 to 10,000 colonies countable (thus 10,000 CFU/mL to 100,000 CFU/mL)) | Grade ([1]; 0.5% (wt/vol), 30 day): 4 (1000 to 10,000 colonies countable (thus 10,000 CFU/mL to 100,000 CFU/mL)) | Grade ([1]; 1.25% (wt/vol), 3 day): 4 (1000 to 10,000 colonies countable (thus 10,000 CFU/mL to 100,000 CFU/mL)) | Grade ([1]; 1.25% (wt/vol), 14 day): 2 (52 to 100 colonies counted (thus 520 to 1000 CFU/mL)) | Grade ([1]; 1.25% (wt/vol), 30 day): 3 (100 to 1000 colonies (thus 1000 to 10,000 CFU/mL)) | Grade ([1]; 2.5% (wt/vol), 3 day): 2 (52 to 100 colonies counted (thus 520 to 1000 CFU/mL)) | Grade ([1]; 2.5% (wt/vol), 14 day): 0 | Grade ([1]; 2.5% (wt/vol), 30 day): 0 | Grade ([1]; 5.0% (wt/vol), 3 day): 0 | Grade ([1]; 5.0% (wt/vol), 14 day): 0 | Grade ([1]; 5.0% (wt/vol), 30 day): 0 | P. vulgaris growth grade, 3 day ([2]; 0.5% weight/volume): 4 (1000 to 10,000 colonies countable (thus 10,000 CFU/mL to 100,000 CFU/mL)) | P. vulgaris growth grade, 13 day ([2]; 0.5% weight/volume): 4 (1000 to 10,000 colonies countable (thus 10,000 CFU/mL to 100,000 CFU/mL)) | P. vulgaris growth grade, 30 day ([2]; 0.5% weight/volume): 4 (1000 to 10,000 colonies countable (thus 10,000 CFU/mL to 100,000 CFU/mL)) | P. vulgaris growth grade, 3 day ([2]; 1.25% weight/volume): 2.3 | P. vulgaris growth grade, 13 day ([2]; 1.25% weight/volume): 1 (0 to 51 colonies counted (thus 10 to 510 CFU/mL based on 0.1-mL sample)) | P. vulgaris growth grade, 30 day ([2]; 1.25% weight/volume): 0 | P. vulgaris growth grade, 3 day ([2]; 2.5% weight/volume): 1 (0 to 51 colonies counted (thus 10 to 510 CFU/mL based on 0.1-mL sample)) | P. vulgaris growth grade, 13 day ([2]; 2.5% weight/volume): 0 | P. vulgaris growth grade, 30 day ([2]; 2.5% weight/volume): 0 | P. vulgaris growth grade, 3 day ([2]; 5.0% weight/volume): 0 | P. vulgaris growth grade, 13 day ([2]; 5.0% weight/volume): 0 | P. vulgaris growth grade, 30 day ([2]; 5.0% weight/volume): 0 | Grade ([3]; 0.5% (wt/vol), 3 day): 4 (1000 to 10,000 colonies countable (thus 10,000 CFU/mL to 100,000 CFU/mL)) | Grade ([3]; 0.5% (wt/vol), 13 day): 4 (1000 to 10,000 colonies countable (thus 10,000 CFU/mL to 100,000 CFU/mL)) | Grade ([3]; 0.5% (wt/vol), 30 day): 4 (1000 to 10,000 colonies countable (thus 10,000 CFU/mL to 100,000 CFU/mL)) | Grade ([3]; 1.25% (wt/vol), 3 day): 2.7 | Grade ([3]; 1.25% (wt/vol), 13 day): 1 (0 to 51 colonies counted (thus 10 to 510 CFU/mL based on 0.1-mL sample)) | Grade ([3]; 1.25% (wt/vol), 30 day): 3 (100 to 1000 colonies (thus 1000 to 10,000 CFU/mL)) | Grade ([3]; 2.5% (wt/vol), 3 day): 1 (0 to 51 colonies counted (thus 10 to 510 CFU/mL based on 0.1-mL sample)) | Grade ([3]; 2.5% (wt/vol), 13 day): 0 | Grade ([3]; 2.5% (wt/vol), 30 day): 0 | Grade ([3]; 5.0% (wt/vol), 3 day): 0 | Grade ([3]; 5.0% (wt/vol), 13 day): 0 | Grade ([3]; 5.0% (wt/vol), 30 day): 0 | Grade ([4]; 0.5% (wt/vol), 3 day): 4 (1000 to 10,000 colonies countable (thus 10,000 CFU/mL to 100,000 CFU/mL)) | Grade ([4]; 0.5% (wt/vol), 14 day): 4 (1000 to 10,000 colonies countable (thus 10,000 CFU/mL to 100,000 CFU/mL)) | Grade ([4]; 0.5% (wt/vol), 30 day): 4 (1000 to 10,000 colonies countable (thus 10,000 CFU/mL to 100,000 CFU/mL)) | Grade ([4]; 1.25% (wt/vol), 3 day): 3.3 | Grade ([4]; 1.25% (wt/vol), 14 day): 2.7 | Grade ([4]; 1.25% (wt/vol), 30 day): 4 (1000 to 10,000 colonies countable (thus 10,000 CFU/mL to 100,000 CFU/mL)) | Grade ([4]; 2.5% (wt/vol), 3 day): 0 | Grade ([4]; 2.5% (wt/vol), 14 day): 0 | Grade ([4]; 2.5% (wt/vol), 30 day): 0 | Grade ([4]; 5.0% (wt/vol), 3 day): 0 | Grade ([4]; 5.0% (wt/vol), 14 day): 0 | Grade ([4]; 5.0% (wt/vol), 30 day): 0 | B. subtillis growth grade, 3 day ([5]; 0.5% weight/volume): 4 (1000 to 10,000 colonies countable (thus 10,000 CFU/mL to 100,000 CFU/mL)) | B. subtillis growth grade, 14 day ([5]; 0.5% weight/volume): 3 (100 to 1000 colonies (thus 1000 to 10,000 CFU/mL)) | B. subtillis growth grade, 30 day ([5]; 0.5% weight/volume): 4 (1000 to 10,000 colonies countable (thus 10,000 CFU/mL to 100,000 CFU/mL)) | B. subtillis growth grade, 3 day ([5]; 1.25% weight/volume): 2 (52 to 100 colonies counted (thus 520 to 1000 CFU/mL)) | B. subtillis growth grade, 14 day ([5]; 1.25% weight/volume): 1 (0 to 51 colonies counted (thus 10 to 510 CFU/mL based on 0.1-mL sample)) | B. subtillis growth grade, 30 day ([5]; 1.25% weight/volume): 1 (0 to 51 colonies counted (thus 10 to 510 CFU/mL based on 0.1-mL sample)) | B. subtillis growth grade, 3 day ([5]; 2.5% weight/volume): 0 | B. subtillis growth grade, 14 day ([5]; 2.5% weight/volume): 0 | B. subtillis growth grade, 30 day ([5]; 2.5% weight/volume): 0 | B. subtillis growth grade, 3 day ([5]; 5.0% weight/volume): 0 | B. subtillis growth grade, 14 day ([5]; 5.0% weight/volume): 0 | B. subtillis growth grade, 30 day ([5]; 5.0% weight/volume): 0 | Aeromonas sp growth grade, 3 day ([6]; 0.5% weight/volume): 5 (More than 10,000 colonies estimated (thus more than 100,000 CFU/mL)) | Aeromonas sp growth grade, 14 day ([6]; 0.5% weight/volume): 4 (1000 to 10,000 colonies countable (thus 10,000 CFU/mL to 100,000 CFU/mL)) | Aeromonas sp growth grade, 30 day ([6]; 0.5% weight/volume): 4 (1000 to 10,000 colonies countable (thus 10,000 CFU/mL to 100,000 CFU/mL)) | Aeromonas sp growth grade, 3 day ([6]; 1.25% weight/volume): 3 (100 to 1000 colonies (thus 1000 to 10,000 CFU/mL)) | Aeromonas sp growth grade, 14 day ([6]; 1.25% weight/volume): 2 (52 to 100 colonies counted (thus 520 to 1000 CFU/mL)) | Aeromonas sp growth grade, 30 day ([6]; 1.25% weight/volume): 1 (0 to 51 colonies counted (thus 10 to 510 CFU/mL based on 0.1-mL sample)) | Aeromonas sp growth grade, 3 day ([6]; 2.5% weight/volume): 0 | Aeromonas sp growth grade, 14 day ([6]; 2.5% weight/volume): 1 (0 to 51 colonies counted (thus 10 to 510 CFU/mL based on 0.1-mL sample)) | Aeromonas sp growth grade, 30 day ([6]; 2.5% weight/volume): 0 | Aeromonas sp growth grade, 3 day ([6]; 5.0% weight/volume): 0 | Aeromonas sp growth grade, 14 day ([6]; 5.0% weight/volume): 0 | Aeromonas sp growth grade, 30 day ([6]; 5.0% weight/volume): 0
